According to patent US9994547B2, “Heteroarylamide inhibitors of TBK1” (Takeda Pharmaceutical Company Limited, priority 2014, dated 2018):

Target: Full length human TBK1 (Homo sapiens (Human), UniProt Q9UHD2)
Assay: Inhibition of TBK1 Enzyme (Example A)
Assay type: biochemical
Settings: -log(IC50), IC50 molar; 3 nM TBK1, 25 μM ATP, 60 min RT
Outline: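 Full-length N-His human TBK1 from Sf9 baculovirus was tested with 11-point 2.5-fold dilutions (1% DMSO) in Hepes pH 7.4, MgCl2, EDTA, Brij, DTT. After 60 min RT and EDTA quench, microfluidic conversion was fitted and reported as pIC50.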

Sequence of Full length human TBK1 (Q9UHD2 whole entry): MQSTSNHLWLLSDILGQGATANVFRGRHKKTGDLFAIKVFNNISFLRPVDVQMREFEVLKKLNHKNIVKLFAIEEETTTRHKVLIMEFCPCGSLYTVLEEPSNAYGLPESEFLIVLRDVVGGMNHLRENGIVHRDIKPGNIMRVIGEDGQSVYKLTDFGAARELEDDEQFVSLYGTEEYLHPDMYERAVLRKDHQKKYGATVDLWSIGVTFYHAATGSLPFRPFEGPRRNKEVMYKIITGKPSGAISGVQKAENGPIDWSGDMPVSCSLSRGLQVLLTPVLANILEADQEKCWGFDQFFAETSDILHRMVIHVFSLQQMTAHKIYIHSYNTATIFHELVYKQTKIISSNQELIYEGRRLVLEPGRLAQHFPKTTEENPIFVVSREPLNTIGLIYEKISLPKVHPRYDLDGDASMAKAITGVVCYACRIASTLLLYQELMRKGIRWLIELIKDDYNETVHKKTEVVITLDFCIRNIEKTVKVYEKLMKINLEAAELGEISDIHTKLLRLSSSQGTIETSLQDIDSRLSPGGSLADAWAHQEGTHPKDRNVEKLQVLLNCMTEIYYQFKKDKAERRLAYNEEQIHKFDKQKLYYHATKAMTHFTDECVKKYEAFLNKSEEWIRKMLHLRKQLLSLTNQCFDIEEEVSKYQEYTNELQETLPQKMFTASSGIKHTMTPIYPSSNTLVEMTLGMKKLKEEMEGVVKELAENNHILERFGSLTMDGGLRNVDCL

| Compound | TBK1 Inhibition (pIC50) |
| --- | --- |
| C[C@H](Nc1cc(-c2cnc(NC(=O)[C@H]3C[C@@H]3C)cn2)cnc1C#N)C(=O)N(C)C [Example 106, (1S,2S)-N-(5-(6-cyano-5-(((S)-1-(dimethylamino)-1-oxopropan-2-yl)amino)pyridin-3-yl)pyrazin-2-yl)-2-methylcyclopropanecarboxamide] | 7.4 |
| C[C@H](Nc1cc(-c2cnc(NC(=O)[C@@H]3C[C@H]3C)cn2)cnc1C#N)C(=O)N(C)C [Example 107, (1R,2R)-N-(5-(6-cyano-5-(((S)-1-(dimethylamino)-1-oxopropan-2-yl)amino)pyridin-3-yl)pyrazin-2-yl)-2-methylcyclopropanecarboxamide] | 7.8 |
| C[C@H](Nc1cc(-c2cnc(NC(=O)[C@@H]3C[C@@H]3C)cn2)cnc1C#N)C(=O)N(C)C [Example 108, (1R,2S)-N-(5-(6-cyano-5-(((S)-1-(dimethylamino)-1-oxopropan-2-yl)amino)pyridin-3-yl)pyrazin-2-yl)-2-methylcyclopropanecarboxamide] | 7.7 |
| C[C@H](Nc1cc(-c2cnc(NC(=O)[C@H]3C[C@H]3C)cn2)cnc1C#N)C(=O)N(C)C [Example 109, (1S,2R)-N-(5-(6-cyano-5-(((S)-1-(dimethylamino)-1-oxopropan-2-yl)amino)pyridin-3-yl)pyrazin-2-yl)-2-methylcyclopropanecarboxamide] | 7.2 |
| CC[C@H](Nc1cc(-c2cnc(NC(=O)C3CC3)cn2)cnc1C#N)C(=O)NCC(F)F [Example 120, (S)-N-(5-(6-cyano-5-((1-((2,2-difluoroethyl)amino)-1-oxobutan-2-yl)amino)pyridin-3-yl)pyrazin-2-yl)cyclopropanecarboxamide] | 7.2 |
| CCNC(=O)CNc1cc(-c2cnc(NC(=O)C3CC3)cn2)ccc1C#N [Example 124, N-(5-(4-cyano-3-((2-(ethylamino)-2-oxoethyl)amino)phenyl)pyrazin-2-yl)cyclopropanecarboxamide] | 6.5 |
| N#Cc1ccc(-c2cnc(NC(=O)C3CC3)cn2)cc1NCC(=O)N1CCCC1 [Example 125, N-(5-(4-cyano-3-((2-oxo-2-(pyrrolidin-1-yl)ethyl)amino)phenyl)pyrazin-2-yl)cyclopropanecarboxamide] | 7.3 |
| CN(CC(F)(F)F)C(=O)CNc1cc(-c2cnc(NC(=O)C3CC3)cn2)ccc1C#N [Example 126, N-(5-(4-cyano-3-((2-(methyl(2,2,2-trifluoroethyl)amino)-2-oxoethyl)amino)phenyl)pyrazin-2-yl)cyclopropanecarboxamide] | 7.6 |
| CC[C@H](Nc1cc(-c2cnc(NC(=O)C3CC3)cn2)ncc1C#N)C(=O)N(C)C [Example 127, (S)-N-(5-(5-cyano-4-((1-(dimethylamino)-1-oxobutan-2-yl)amino)pyridin-2-yl)pyrazin-2-yl)cyclopropanecarboxamide] | 7.0 |
| CC1(O)CCN(C(=O)CNc2cc(-c3cnc(NC(=O)C4CC4)cn3)ccc2C#N)C1 (stereo not shown) [Example 132, N-(5-(4-cyano-3-((2-(3-hydroxy-3-methylpyrrolidin-1-yl)-2-oxoethyl)amino)phenyl)pyrazin-2-yl)cyclopropanecarboxamide] | 6.2 |
| CC(CO)N(C)C(=O)CNc1cc(-c2cnc(NC(=O)C3CC3)cn2)ccc1C#N (stereo not shown) [Example 133, N-(5-(4-cyano-3-((2-((1-hydroxypropan-2-yl)(methyl)amino)-2-oxoethyl)amino)phenyl)pyrazin-2-yl)cyclopropanecarboxamide] | 7.3 |
| CN(C)C(=O)[C@H](CO)Nc1cc(-c2cnc(NC(=O)C3CC3)cn2)ccc1C#N [Example 136, (S)-N-(5-(4-cyano-3-((1-(dimethylamino)-3-hydroxy-1-oxopropan-2-yl)amino)phenyl)pyrazin-2-yl)cyclopropanecarboxamide] | 7.6 |
| C[C@H](Nc1cc(-c2cnc(NC(=O)C3CC3)cn2)cc(F)c1C#N)C(=O)N(C)C [Example 137, (S)-N-(5-(4-cyano-3-((1-(dimethylamino)-1-oxopropan-2-yl)amino)-5-fluorophenyl)pyrazin-2-yl)cyclopropanecarboxamide] | 7.6 |

Now from value to compound:

| TBK1 Inhibition (pIC50) | Compound |
| --- | --- |
| 5.6 | CN1CC(N(C)C(=O)CNc2cc(-c3cnc(NC(=O)C4CC4)cn3)cnc2C#N)C1 [Example 105, N-(5-(6-cyano-5-((2-(methyl(1-methylazetidin-3-yl)amino)-2-oxoethyl)amino)pyridin-3-yl)pyrazin-2-yl)cyclopropanecarboxamide] |
| 7.5 | CC(O)CN(CC(F)(F)F)C(=O)CNc1cc(-c2cnc(NC(=O)C3CC3)cn2)cnc1C#N (stereo not shown) [Example 110, N-(5-(6-cyano-5-((2-((2-hydroxypropyl)(2,2,2-trifluoroethyl)amino)-2-oxoethyl)amino)pyridin-3-yl)pyrazin-2-yl)cyclopropanecarboxamide] |
| 6.6 | CC(C)(O)CN(CC(F)(F)F)C(=O)CNc1cc(-c2cnc(NC(=O)C3CC3)cn2)cnc1C#N [Example 111, N-(5-(6-cyano-5-((2-((2-hydroxy-2-methylpropyl)(2,2,2-trifluoroethyl)amino)-2-oxoethyl)amino)pyridin-3-yl)pyrazin-2-yl)cyclopropanecarboxamide] |
| 7.7 | CCN(C)C(=O)[C@H](C)Nc1cc(-c2cnc(NC(=O)C3CC3)cn2)cnc1C#N [Example 112, (S)-N-(5-(6-cyano-5-((1-(ethyl(methyl)amino)-1-oxopropan-2-yl)amino)pyridin-3-yl)pyrazin-2-yl)cyclopropanecarboxamide] |
| 7.6 | N#Cc1ncc(-c2cnc(NC(=O)C3CC3)cn2)cc1NCC(=O)N1C[C@H](CO)C[C@H]1C(F)(F)F [Example 113, N-(5-(6-cyano-5-((2-((2S,4R)-4-(hydroxymethyl)-2-(trifluoromethyl)pyrrolidin-1-yl)-2-oxoethyl)amino)pyridin-3-yl)pyrazin-2-yl)cyclopropanecarboxamide] |
| 7.7 | C[C@H](Nc1cc(-c2cnc(NC(=O)C3CC3)cn2)cnc1C#N)C(=O)NCC(F)F [Example 114, (S)-N-(5-(6-cyano-5-((1-((2,2-difluoroethyl)amino)-1-oxopropan-2-yl)amino)pyridin-3-yl)pyrazin-2-yl)cyclopropanecarboxamide] |
| 6.9 | CN(C)C(=O)C(CCO)Nc1cc(-c2cnc(NC(=O)C3CC3)cn2)cnc1C#N (stereo not shown) [Example 115, N-(5-(6-cyano-5-((1-(dimethylamino)-4-hydroxy-1-oxobutan-2-yl)amino)pyridin-3-yl)pyrazin-2-yl)cyclopropanecarboxamide] |
| 7.3 | C[C@H](Nc1cc(-c2cnc(NC(=O)C3CC3)cn2)cnc1C#N)C(=O)NCC(F)(F)F [Example 116, (S)-N-(5-(6-cyano-5-((1-oxo-1-((2,2,2-trifluoroethyl)amino)propan-2-yl)amino)pyridin-3-yl)pyrazin-2-yl)cyclopropanecarboxamide] |
| 7.0 | C[C@H](Nc1cc(-c2cnc(NC(=O)C3CC3)cn2)cnc1C#N)C(=O)NCC(C)(F)F [Example 117, (S)-N-(5-(6-cyano-5-((1-((2,2-difluoropropyl)amino)-1-oxopropan-2-yl)amino)pyridin-3-yl)pyrazin-2-yl)cyclopropanecarboxamide] |
| 6.8 | C[C@H](Nc1cc(-c2cnc(NC(=O)C3CC3)cn2)cnc1C#N)C(=O)NC1CC1(F)F (stereo partly drawn) [Example 118, N-(5-(6-cyano-5-(((2S)-1-((2,2-difluorocyclopropyl)amino)-1-oxopropan-2-yl)amino)pyridin-3-yl)pyrazin-2-yl)cyclopropanecarboxamide] |
| 8.1 | CC(NC(=O)[C@H](C)Nc1cc(-c2cnc(NC(=O)C3CC3)cn2)cnc1C#N)C(F)F (stereo partly drawn) [Example 119, N-(5-(6-cyano-5-(((2S)-1-((1,1-difluoropropan-2-yl)amino)-1-oxopropan-2-yl)amino)pyridin-3-yl)pyrazin-2-yl)cyclopropanecarboxamide] |
| 5.6 | N#Cc1ncc(-c2cnc(NC(=O)C3CC3)cn2)cc1NCC(N)=O [Example 121, N-(5-(5-((2-amino-2-oxoethyl)amino)-6-cyanopyridin-3-yl)pyrazin-2-yl)cyclopropanecarboxamide] |
| 7.0 | CN(C)C(=O)CNc1cc(-c2cnc(NC(=O)C3CC3)cn2)cnc1C#N [Example 122, N-(5-(6-cyano-5-((2-(dimethylamino)-2-oxoethyl)amino)pyridin-3-yl)pyrazin-2-yl)cyclopropanecarboxamide] |
| 7.2 | CN(C)C(=O)CNc1cc(-c2cnc(NC(=O)C3CC3)cn2)ccc1C#N [Example 123, N-(5-(4-cyano-3-((2-(dimethylamino)-2-oxoethyl)amino)phenyl)pyrazin-2-yl)cyclopropanecarboxamide] |
| 7.1 | CN(C)C(=O)C(CO)Nc1cc(-c2cnc(NC(=O)C3CC3)cn2)cnc1C#N [Example 128, (S)-N-(5-(6-cyano-5-((1-(dimethylamino)-3-hydroxy-1-oxopropan-2-yl)amino)pyridin-3-yl)pyrazin-2-yl)cyclopropanecarboxamide] |
| 7.6 | C[C@H](Nc1cc(-c2cnc(NC(=O)C3CC3)cn2)cnc1C#N)C(=O)N(C)C [Example 129, (S)-N-(5-(6-cyano-5-((1-(dimethylamino)-1-oxopropan-2-yl)amino)pyridin-3-yl)pyrazin-2-yl)cyclopropanecarboxamide] |
| 7.1 | COCC[C@H](Nc1cc(-c2cnc(NC(=O)C3CC3)cn2)cnc1C#N)C(=O)N(C)C [Example 131, (S)-N-(5-(6-cyano-5-((1-(dimethylamino)-4-methoxy-1-oxobutan-2-yl)amino)pyridin-3-yl)pyrazin-2-yl)cyclopropanecarboxamide] |
| 6.9 | CC(O)CN(C)C(=O)CNc1cc(-c2cnc(NC(=O)C3CC3)cn2)ccc1C#N (stereo not shown) [Example 134, N-(5-(4-cyano-3-((2-((2-hydroxypropyl)(methyl)amino)-2-oxoethyl)amino)phenyl)pyrazin-2-yl)cyclopropanecarboxamide] |
